The text below walks through data of ChEMBL document CHEMBL3259786, “Quinazolines: new horizons in anticonvulsant therapy” (Eur J Med Chem, 2014).

Data set [1] deals with Mus musculus. The experiment in a line: Anticonvulsant activity in ip dosed mouse by MES test. The class given is functional.
Data set [2] can be described thus: Toxicity in ip dosed mouse. It counts as organism-based. Conditions: in vivo.
The species entered for data set [3] is Mus musculus. The experiment in a line: Anticonvulsant activity in mouse by MES test. It counts as functional.
Data set [4] is described as follows: Acute toxicity in po dosed mouse. The class given is organism-based. Conditions: in vivo.
For data set [5], the system named is Mus musculus. Nature of the data set: Anticonvulsant activity in po dosed albino mouse measured after 60 mins by MES test. The class given is functional.

In general, LD50 refers to the dose expected to kill half of the subjects tested. Low readings indicate greater toxicity, high ones lower toxicity. Regarding `c1ccc(CN(Cc2ccccc2)c2nc(N(Cc3ccccc3)Cc3ccccc3)c3ccccc3n2)cc1`, the Activity in the data set with Mus musculus [1] turned out to be 50%. In data set [2], this compound showed an LD50 of 400 mg/kg.

As usually defined, the ED50 is the dose that gives a 50% effect, or the effect in half of the subjects. A low value points to greater potency. Compound `Nc1nnc2c3ccccc3nc(-c3ccccc3Br)n12` came in with an ED50 in the data set listed under Mus musculus [3] of 27.4 mg/kg.

`O=C(CNc1ccc(Cl)cc1)Nn1c(COc2ccc(Cl)cc2Cl)nc2ccccc2c1=O` yielded an LD50 in data set [4] of more than 3000 mg/kg. For the same compound, the PD50 in the data set with Mus musculus [5] was determined as 200.53 µmol/kg.

As for `CCSc1nc(=O)c2ccccc2[nH]1`, the Activity in the data set on Mus musculus [1] is reported as 60%. Also, the LD50 in data set [2] is 1000 mg/kg.
